In patent US7390817B2, “Combinations of a vanilloid antagonist and an NSAID for the treatment of pain” (Glaxo Group Limited, priority 2002, dated 2008):

Test system: FCA-induced mechanical hypersensitivity
Assay: Guinea Pig FCA Model (mechanical hyperalgesia, paw pressure)
Type: in vivo
Conditions: male Dunkin-Hartley guinea-pigs, FCA intraplantar left paw, oral dosing 24 hours later, reading 1 hour after drug administration; Compound A 1.5 mg/kg, Compound B 1 mg/kg
Description: 100 μl of 1 mg/ml FCA was injected intraplantar into the left paw of 6 groups of 6 male Dunkin-Hartley guinea-pigs (average weight 330 g) in order to induce inflammation and evoke a mechanical hypersensitivity (Ref. Stein, C., Millan, M. J., and Herz, A., Unilateral inflammation of the hind paw in rats as a model of prolonged noxious stimulation: alterations in behaviour and nociceptive thresholds, Pharmacol. Biochem. Behav., 31 (1988) 445-451). 24 hours later 1.5 mg/kg rofecoxib, 1 mg/kg N-(2-Bromophenyl)-N′-[((R)-1-(5-trifluoromethyl-2-pyridyl)pyrrolidin-3-yl)]urea and a combination of both was administered orally with the vehicle being 1% methylcellulose, the dosing volume being 2 ml/kg and dosing straight into the stomach. The methylcellulose was added gradually to the compound into the pestle and mortar and ground together. The mixtures were then sonnicated for 20 minutes. Behavioural readouts of mechanical hyperalgesia were obtained before FCA adminsitration (naive reading), after FCA but before drug administration (predose reading) and 1 hour after drug administration. […] The readout used was paw withdrawal in response to paw pressure (Ref. Randall L O, Selitto J J. (1957) A method for measurement of analgesic activity on inflammed tissue. Arch Int. Pharmacodyn 61, 409419.) and the end point was paw withdrawal. […]

Row | Structure (SMILES) | % reversal of mechanical hypersensitivity [%]
1 | CS(=O)(=O)c1ccc(C2=C(c3ccccc3)C(=O)OC2)cc1 [Compound A, rofecoxib] | 30.6
2 | O=C(Nc1ccccc1Br)N[C@@H]1CCN(c2ccc(C(F)(F)F)cn2)C1 [Compound B, N-(2-Bromophenyl)-N′-[((R)-1-(5-trifluoromethyl-2-pyridyl)pyrrolidin-3-yl)]urea] | 32.5
